Data: patent US11279733B2, “Peptide antibiotics” (priority 2017, dated 2022)
Converted amounts (≈) assume the structure as drawn. Positions of bridges follow the written chain, without caps; N, C: chain ends. Non-standard residues stand in square brackets, D forms with d. Residues, ends and D or L forms follow the SMILES beside them. *: point of attachment. Decanoyl(3R-OH) = CCCCCCC[C@@H](O)CC(=O)*; dPhe(4-F) = N[C@H](Cc1ccc(F)cc1)C(=O)O; 2Nal = N[C@@H](Cc1ccc2ccccc2c1)C(=O)O; d2Nal = N[C@H](Cc1ccc2ccccc2c1)C(=O)O; dIgl = N[C@@H](C(=O)O)C1Cc2ccccc2C1; d(hPhe) = N[C@H](CCc1ccccc1)C(=O)O; dDab = NCC[C@@H](N)C(=O)O; Octanoyl = CCCCCCCC(=O)*; dDap = NC[C@@H](N)C(=O)O; Dab = NCC[C@H](N)C(=O)O

Experiments:
[1] = system: P. aeruginosa ATCC 27853; conditions: ATCC 27853
Outline: (§1)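 Mid-log cultures grown in Mueller Hinton broth at 37° C were tested by 2-fold broth microdilution at 5×10^5 CFU/mL final. Compounds were dissolved in water and tested over a final range of 32 to 0.015 μg/mL.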

[2] = system: P. aeruginosa GN_105, PmxR; conditions: GN 105, PmxR
Outline: as §1

[3] = system: K. pneumoniae GN_106, PmxR; conditions: GN 106, PmxR
Outline: as §1

[4] = system: K. pneumoniae ATCC 700603, MDR; conditions: ATCC 700603
Outline: as §1

[5] = system: K. pneumoniae GN_102 PmxR; conditions: GN 102 PmxR
Outline: as §1

[6] = system: P. aeruginosa GN_043, PmxR; conditions: polymyxin-resistant
Outline: as §1

[7] = system: A. baumannii GN_093 PmxR; conditions: GN 093 PmxR
Outline: as §1

[8] = system: E. coli ATCC 25922; conditions: ATCC 25922
Outline: as §1

[9] = system: S. aureus ATCC 25923, MSSA; conditions: ATCC 25923
Outline: as §1

[10] = system: K. pneumoniae ATCC 13883; conditions: ATCC 13883
Outline: as §1

[11] = system: A. baumannii ATCC 19606; conditions: ATCC 19606
Outline: as §1

[12] = system: K. pneumoniae ATCC BAA-2146, NDM-1 pos; conditions: ATCC BAA-2146
Outline: as §1

[13] = in vitro; conditions: human
Outline: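 Fluorescence read-out (excitation 560, emission 590) after a 2 h, 37 °C incubation with 5 μM resazurin, following 24 h compound treatment of cells plated at 4000 per well. CC50 values come from fitting dose–response curves of growth inhibition.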

Compound | MIC P. aeruginosa ATCC 27853 [1] | MIC P. aeruginosa GN_105, PmxR [2] | MIC K. pneumoniae GN_106, PmxR [3] | MIC K. pneumoniae ATCC 700603, MDR [4] | MIC K. pneumoniae GN_102 PmxR [5] | MIC P. aeruginosa GN_043, PmxR [6] | MIC A. baumannii GN_093 PmxR [7] | MIC E. coli ATCC 25922 [8] | MIC S. aureus ATCC 25923, MSSA [9] | MIC K. pneumoniae ATCC 13883 [10] | MIC A. baumannii ATCC 19606 [11] | MIC K. pneumoniae ATCC BAA-2146, NDM-1 pos [12] | CC50 at 24 h [13]
CCCCCCC[C@@H](O)CC(=O)N[C@H](CCN)C(=O)N[C@H]1CCNC(=O)[C@H](Cc2c[nH]c3ccccc23)NC(=O)[C@H](CCN)NC(=O)[C@H](CCN)NC(=O)[C@H](CC(C)C)NC(=O)[C@@H](Cc2ccc3ccccc3c2)NC(=O)[C@H](CCN)NC1=O [compound 8113, 3(R)OH-nC9CO-D-Dab-cyc[L-Dab-L-Dab-L-Dab-D-Ala(2-Na)-L-Leu-L-Dab-L-Dab-L-Trp]] ({Decanoyl(3R-OH)}-[dDab][Dab][Dab][d2Nal]L[Dab][Dab]W; lactam 2-C) | 8 µg/mL (≈ 6.85 µM) | 4 µg/mL (≈ 3.43 µM) | 8 µg/mL (≈ 6.85 µM) | 8 µg/mL (≈ 6.85 µM) | 8 µg/mL (≈ 6.85 µM) | 4 µg/mL (≈ 3.43 µM) | 8 µg/mL (≈ 6.85 µM) | 8 µg/mL (≈ 6.85 µM) | 4 µg/mL (≈ 3.43 µM) | 4 µg/mL (≈ 3.43 µM) | 8 µg/mL (≈ 6.85 µM) | 8 µg/mL (≈ 6.85 µM) | 28 µM
CCCCCCC[C@@H](O)CC(=O)N[C@H](CCN)C(=O)N[C@H]1CCNC(=O)[C@H](Cc2c[nH]c3ccccc23)NC(=O)[C@H](CCN)NC(=O)[C@H](CCN)NC(=O)[C@H](CC(C)C)NC(=O)[C@@H](Cc2ccc(F)cc2)NC(=O)[C@H](CCN)NC1=O [compound 8119, 3(R)OH-nC9CO-D-Dab-cyc[L-Dab-L-Dab-L-Dab-D-Phe(4-F)-L-Leu-L-Dab-L-Dab-L-Trp]] ({Decanoyl(3R-OH)}-[dDab][Dab][Dab][dPhe(4-F)]L[Dab][Dab]W; lactam 2-C) | 4 µg/mL (≈ 3.52 µM) | 2 µg/mL (≈ 1.76 µM) | 4 µg/mL (≈ 3.52 µM) | 8 µg/mL (≈ 7.05 µM) | 4 µg/mL (≈ 3.52 µM) | 2 µg/mL (≈ 1.76 µM) | 8 µg/mL (≈ 7.05 µM) | 8 µg/mL (≈ 7.05 µM) | 16 µg/mL (≈ 14.1 µM) | 4 µg/mL (≈ 3.52 µM) | 8 µg/mL (≈ 7.05 µM) | 4 µg/mL (≈ 3.52 µM) | 64 µM
CCCCCCC[C@@H](O)CC(=O)N[C@H](CCN)C(=O)N[C@H]1CCNC(=O)[C@H](Cc2c[nH]c3ccccc23)NC(=O)[C@H](CCN)NC(=O)[C@H](CCN)NC(=O)[C@H](CC(C)C)NC(=O)[C@@H](Cc2c[nH]c3ccccc23)NC(=O)[C@H](CCN)NC1=O [compound 8127, 3(R)OH-nC9CO-D-Dab-cyc[L-Dab-L-Dab-L-Dab-D-Trp-L-Leu-L-Dab-L-Dab-L-Trp]] ({Decanoyl(3R-OH)}-[dDab][Dab][Dab][dW]L[Dab][Dab]W; lactam 2-C) | 2 µg/mL (≈ 1.73 µM) | 2 µg/mL (≈ 1.73 µM) | 4 µg/mL (≈ 3.46 µM) | 4 µg/mL (≈ 3.46 µM) | 16 µg/mL (≈ 13.8 µM) | 2 µg/mL (≈ 1.73 µM) | 32 µg/mL (≈ 27.7 µM) | 2 µg/mL (≈ 1.73 µM) | 4 µg/mL (≈ 3.46 µM) | 16 µg/mL (≈ 13.8 µM) | 16 µg/mL (≈ 13.8 µM) | 4 µg/mL (≈ 3.46 µM) | 63 µM
CCCCCCC[C@@H](O)CC(=O)N[C@H](CCN)C(=O)N[C@H]1CCNC(=O)[C@H](Cc2c[nH]c3ccccc23)NC(=O)[C@H](CCN)NC(=O)[C@H](CCN)NC(=O)[C@H](CC(C)C)NC(=O)[C@@H](CCc2ccccc2)NC(=O)[C@H](CCN)NC1=O [compound 8129, 3(R)OH-nC9CO-D-Dab-cyc[L-Dab-L-Dab-L-Dab-D-hPhe-L-Leu-L-Dab-L-Dab-L-Trp]] ({Decanoyl(3R-OH)}-[dDab][Dab][Dab][d(hPhe)]L[Dab][Dab]W; lactam 2-C) | 2 µg/mL (≈ 1.77 µM) | 2 µg/mL (≈ 1.77 µM) | 4 µg/mL (≈ 3.54 µM) | 4 µg/mL (≈ 3.54 µM) | 4 µg/mL (≈ 3.54 µM) | 4 µg/mL (≈ 3.54 µM) | 4 µg/mL (≈ 3.54 µM) | 2 µg/mL (≈ 1.77 µM) | 2 µg/mL (≈ 1.77 µM) | 4 µg/mL (≈ 3.54 µM) | 4 µg/mL (≈ 3.54 µM) | 4 µg/mL (≈ 3.54 µM) | 37 µM
CCCCCCC[C@@H](O)CC(=O)N[C@H](CCN)C(=O)N[C@H]1CCNC(=O)[C@H](Cc2c[nH]c3ccccc23)NC(=O)[C@H](CCN)NC(=O)[C@H](CCN)NC(=O)[C@H](CC(C)C)NC(=O)[C@@H](C2Cc3ccccc3C2)NC(=O)[C@H](CCN)NC1=O [compound 8826, nC10-3(R)OH-D-Dab-cyc[L-Dab-L-Dab-D-indanylgyl-L-Leu-L-Dab-L-Dab-L-Trp]] ({Decanoyl(3R-OH)}-[dDab][Dab][Dab][dIgl]L[Dab][Dab]W; lactam 2-C) | 4 µg/mL (≈ 3.5 µM) | 4 µg/mL (≈ 3.5 µM) | 8 µg/mL (≈ 7 µM) | 8 µg/mL (≈ 7 µM) | 8 µg/mL (≈ 7 µM) | 4 µg/mL (≈ 3.5 µM) | 8 µg/mL (≈ 7 µM) | 8 µg/mL (≈ 7 µM) | 4 µg/mL (≈ 3.5 µM) | 8 µg/mL (≈ 7 µM) | 8 µg/mL (≈ 7 µM) | 4 µg/mL (≈ 3.5 µM) | 38 µM
CCCCCCC[C@@H](O)CC(=O)N[C@H](CCN)C(=O)N[C@H]1CCNC(=O)[C@H](Cc2c[nH]c3ccccc23)NC(=O)[C@H](CCN)NC(=O)[C@H](CCN)NC(=O)[C@H](Cc2ccc3ccccc3c2)NC(=O)[C@@H](Cc2ccccc2)NC(=O)[C@H](CCN)NC1=O [compound 8832, nC10-3(R)OH-D-Dab-cyc[L-Dab-L-Dab-D-Phe-L-2-NaphthylAla-L-Dab-L-Dab-L-Trp]] ({Decanoyl(3R-OH)}-[dDab][Dab][Dab][dF][2Nal][Dab][Dab]W; lactam 2-C) | 4 µg/mL (≈ 3.33 µM) | 8 µg/mL (≈ 6.66 µM) | 8 µg/mL (≈ 6.66 µM) | 8 µg/mL (≈ 6.66 µM) | 16 µg/mL (≈ 13.3 µM) | 4 µg/mL (≈ 3.33 µM) | 16 µg/mL (≈ 13.3 µM) | 8 µg/mL (≈ 6.66 µM) | 4 µg/mL (≈ 3.33 µM) | 16 µg/mL (≈ 13.3 µM) | 8 µg/mL (≈ 6.66 µM) | 8 µg/mL (≈ 6.66 µM) | 26 µM
CCCCCCC[C@@H](O)CC(=O)N[C@H](CCCNC(=N)N)C(=O)N[C@H]1CCNC(=O)[C@H](Cc2c[nH]c3ccccc23)NC(=O)[C@H](CCN)NC(=O)[C@H](CCN)NC(=O)[C@H](CC(C)C)NC(=O)[C@@H](Cc2ccccc2)NC(=O)[C@H](CCN)NC1=O [compound 8884, nC10-3(R)OH-D-Arg-cyc[L-Dab-L-Dab-D-Phe-L-Leu-L-Dab-L-Dab-L-Trp]] ({Decanoyl(3R-OH)}-[dR][Dab][Dab][dF]L[Dab][Dab]W; lactam 2-C) | 4 µg/mL (≈ 3.41 µM) | 16 µg/mL (≈ 13.6 µM) | 16 µg/mL (≈ 13.6 µM) | 4 µg/mL (≈ 3.41 µM) | 32 µg/mL (≈ 27.3 µM) | 4 µg/mL (≈ 3.41 µM) | 32 µg/mL (≈ 27.3 µM) | 4 µg/mL (≈ 3.41 µM) | 16 µg/mL (≈ 13.6 µM) | 16 µg/mL (≈ 13.6 µM) | 32 µg/mL (≈ 27.3 µM) | 8 µg/mL (≈ 6.82 µM) | 73 µM
CCCCCCCC(=O)N[C@H](CN)C(=O)N[C@H]1CCNC(=O)[C@H](Cc2c[nH]c3ccccc23)NC(=O)[C@H](CCN)NC(=O)[C@H](CCN)NC(=O)[C@H](CC(C)C)NC(=O)[C@@H](Cc2ccccc2)NC(=O)[C@H](CCN)NC1=O [compound 8887, nC7CO-D-Dap-cyc[L-Dab-L-Dab-D-Phe-L-Leu-L-Dab-L-Dab-L-Trp]] (Octanoyl-[dDap][Dab][Dab][dF]L[Dab][Dab]W; lactam 2-C) | 2 µg/mL (≈ 1.89 µM) | 8 µg/mL (≈ 7.55 µM) | 16 µg/mL (≈ 15.1 µM) | 4 µg/mL (≈ 3.78 µM) | 32 µg/mL (≈ 30.2 µM) | 2 µg/mL (≈ 1.89 µM) | >32 µg/mL | 8 µg/mL (≈ 7.55 µM) | 8 µg/mL (≈ 7.55 µM) | 16 µg/mL (≈ 15.1 µM) | 32 µg/mL (≈ 30.2 µM) | 8 µg/mL (≈ 7.55 µM) | 190 µM
